# Laboratory results reported in patent US6737383B1, “Herbicidal oxadiazolidines” (priority 1999, dated 2004).
# Assays:
# [1] = test system: sandbur; assay: Test D sandbur; format: in vivo, Cenchrus echinatus; conditions: Preemergence, 0 to 100 scale
# How it was run: (§1)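 Greenhouse pots, sandy loam, single species per pot. Preemergence tests: soil-surface application ≤1 day after planting. Compound formulated in non-phytotoxic solvent with surfactant. Visual rating 14–21 DAT, scale 0–100.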
# [2] = test system: morningglory; assay: Test B pre/postemergence morningglory; format: in vivo, Ipomoea hederacea
# How it was run: (§2)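 Response is a visual 0-to-10 score relative to untreated plants, where 0 means no effect and 10 means complete control, taken twelve to sixteen days after application. Treatments went onto soil at planting and onto foliage of 1- to 4-leaf plants, using a surfactant-containing non-phytotoxic solvent.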
# [3] = test system: giant foxtail; assay: Test B pre/postemergence giant foxtail; format: in vivo, Setaria faberii
# How it was run: as §2
# [4] = test system: bamyardgrass; assay: Test B flood test barnyardgrass; format: in vivo, Echinochloa crus-galli
# How it was run: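 Each value is a visual injury score relative to controls, with 10 meaning complete control and 0 no effect. Evaluation took place twelve to sixteen days after the 2-leaf-stage plants were treated and kept in the greenhouse.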
# [5] = test system: surinam grass; assay: Test D surinam grass; format: in vivo, Brachiaria decumbens; conditions: Preemergence, 0 to 100 scale
# How it was run: as §1
# [6] = test system: pitted morningglory; assay: Test D pitted morningglory; format: in vivo, Ipomoea lacunosa; conditions: Preemergence, 0 to 100 scale
# How it was run: as §1
# [7] = test system: cocklebur; assay: Test B pre/postemergence cocklebur; format: in vivo, Xanthium strumarium
# How it was run: as §2
# [8] = test system: wild oat; assay: Test E wild oat; format: in vivo, Avena fatua; conditions: Preemergence
# [9] = test system: green foxtail; assay: Test E green foxtail; format: in vivo, Setaria viridis; conditions: Preemergence
# [10] = test system: winter wheat; assay: Test E winter wheat; format: in vivo, Triticum aestivum; conditions: Preemergence
# [11] = test system: Italian ryegrass; assay: Test E Italian ryegrass; format: in vivo, Lolium multiflorum; conditions: Preemergence
# [12] = test system: winter wheat; assay: Test E winter wheat; format: in vivo, Triticum aestivum; conditions: Postemergence; for Plant response rating, Wheat (winter): 0 to 100 scale, 0 is no effect, 100 is complete control
# How it was run: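 Greenhouse-grown plants are treated (postemergence: 1- to 4-leaf stage, sandy loam/potting mix 60:40), then evaluated visually versus untreated controls some 21 to 28 days later.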
# [13] = test system: tall mallow; assay: Test D tall mallow; format: in vivo, Malva sylvestris; conditions: Postemergence, 0 to 100 scale
# [14] = test system: blackgrass; assay: Test E blackgrass; format: in vivo, Alopecurus myosuroides; conditions: Preemergence
# [15] = test system: common ragweed; assay: Test D common ragweed; format: in vivo, Ambrosia elatior; conditions: Postemergence, 0 to 100 scale
# [16] = test system: winter barley; assay: Test E winter barley; format: in vivo, Hordeum vulgare; conditions: Preemergence
# [17] = Rate 32 g/ha, 0 no injury, 100 complete control
# [18] = Rate 64 g/ha, 0 no injury, 100 complete control
# [19] = Rate 125 g/ha, 0 no injury, 100 complete control
# [20] = Postemergence, Rate 62 g/ha, scale 0 to 10, 0 is no effect, 10 is complete control
# [21] = Postemergence, Rate 250 g/ha, scale 0 to 10, 0 no effect, 10 complete control
# [22] = Preemergence, Rate 31 g/ha, visual rating, scale 0 to 10 (0 no effect, 10 complete control)
# [23] = Preemergence, Rate 62 g/ha, scale 0 to 10, 0 is no effect, 10 is complete control
# [24] = Preemergence, Rate 125 g/ha, scale 0 to 10 (0 no effect, 10 complete control)
# [25] = Preemergence, Rate 250 g/ha, scale of 0 to 10 where 0 is no effect and 10 is complete control
# [26] = Rate 31 g/ha, Postemergence, scale 0 to 10
# [27] = Rate 125 g/ha, Postemergence, scale 0 to 10, 0 no effect, 10 complete control
# [28] = Rate 125 g/ha, 0 to 100 scale (0 no effect, 100 complete control)
# [29] = Rate 500 g/ha, 0 to 100 scale where 0 is no effect and 100 is complete control
# [30] = Preemergence, Rate 62 g/ha, scale of 0 to 10 where 0 is no effect and 10 is complete control
# [31] = Preemergence, Rate 500 g/ha, scale of 0 to 10 where 0 is no effect and 10 is complete control
# [32] = Rate 62 g/ha, Postemergence, scale of 0 to 10 where 0 is no effect and 10 is complete control
# [33] = Rate 125 g/ha, Preemergence, scale of 0 to 10 where 0 is no effect and 10 is complete control
# [34] = Rate 500 g/ha, Postemergence, scale 0 to 10, 0 no effect, 10 complete control
# [35] = Rate 16 g/ha, 0 no injury, 100 complete control
smiles,measurement,setting,value
Cc1cccc(C)c1-n1c(=O)on(C(=O)N(c2ccc(F)cc2F)C(C)C)c1=O [Compound 28],"Plant response rating, Sandbur",[1]; [17],0
same,Sandbur plant response rating,[1]; [18],0
same,Sandbur plant response rating,[1]; [19],0
same,"Plant response rating, Sandbur",[1]; Rate 250 g/ha,0
same,Morningglory plant response rating,[2]; [20],2
same,Morningglory plant response rating,[2]; [21],2
same,Morningglory plant response rating,[2]; [22],0
same,"Plant response rating, Morningglory",[2]; [23],0
same,"Plant response rating, Morningglory",[2]; [24],0
same,"Plant response rating, Morningglory",[2]; [25],0
same,Morningglory plant response rating,[2]; [26],0
same,Morningglory plant response rating,[2]; [27],2
same,Giant foxtail plant response rating,[3]; [20],1
same,Giant foxtail plant response rating,[3]; [21],4
same,Giant foxtail plant response rating,[3]; [22],0
same,"Plant response rating, Giant foxtail",[3]; [23],2
same,"Plant response rating, Giant foxtail",[3]; [24],5
same,"Plant response rating, Giant foxtail",[3]; [25],7
same,Giant foxtail plant response rating,[3]; [26],1
same,Giant foxtail plant response rating,[3]; [27],2
same,Barnyardgrass plant response rating,[4]; [20],5
same,Barnyardgrass plant response rating,"[4]; Rate 125 g/ha, Postemergence section (flood test species), scale 0 to 10, 0 no effect, 10 complete control",8
same,Barnyardgrass plant response rating,"[4]; Rate 500 g/ha, Postemergence section of Table B, 0 to 10 scale (0 no effect, 10 complete control)",10
same,Barnyardgrass plant response rating,"[4]; flood test, listed under Postemergence, Rate 250 g/ha, scale 0 to 10, 0 no effect, 10 complete control",9
same,"Plant response rating, Surinam grass",[5]; [17],0
same,Surinam grass plant response rating,[5]; [18],0
same,Surinam grass plant response rating,[5]; [19],65
same,"Plant response rating, Surinam grass",[5]; Rate 250 g/ha,75
same,"Plant response rating, P. morninglory",[6]; [17],0
same,"Plant response rating, P. morninglory",[6]; [18],0
same,"Plant response rating, P. morninglory",[6]; [19],0
same,"Plant response rating, P. morninglory",[6]; Rate 250 g/ha,0
same,Cocklebur plant response rating,[7]; [20],0
same,Cocklebur plant response rating,[7]; [21],3
same,Cocklebur plant response rating,[7]; [22],0
same,"Plant response rating, Cocklebur",[7]; [24],0
same,"Plant response rating, Cocklebur",[7]; [25],0
same,Cocklebur plant response rating,[7]; [26],0
same,Cocklebur plant response rating,[7]; [27],0
CC(C)N(C(=O)n1oc(=O)n(C2CC2)c1=O)c1ccccc1 [Compound 243],"Plant response rating, Wild oat",[8]; [28],60
same,Wild oat plant response rating (0 to 100 scale),[8]; Rate 250 g/ha,55
same,"Plant response rating, Wild oat",[8]; [29],90
same,"Plant response rating, Green foxtail",[9]; [28],75
same,Green foxtail plant response rating (0 to 100 scale),[9]; Rate 250 g/ha,100
same,"Plant response rating, Green foxtail",[9]; [29],100
same,"Plant response rating, Wheat (winter)",[10]; [28],50
same,Wheat (winter) plant response rating (0 to 100 scale),[10]; Rate 250 g/ha,70
same,"Plant response rating, Wheat (winter)",[10]; [29],75
same,Morningglory plant response rating,[2]; [30],2
same,Morningglory plant response rating,[2]; [25],8
same,"Plant response rating, Morningglory",[2]; [31],10
same,Morningglory plant response rating,[2]; [32],5
same,Morningglory plant response rating,[2]; [33],3
same,"Plant response rating (0 to 10; 0 is no effect, 10 is complete control), Morningglory","[2]; Rate 250 g/ha, Postemergence",7
same,Morningglory plant response rating,[2]; [34],8
same,"Plant response rating, I. Ryegrass",[11]; [28],70
same,I. Ryegrass plant response rating (0 to 100 scale),[11]; Rate 250 g/ha,85
same,"Plant response rating, I. Ryegrass",[11]; [29],100
same,Giant foxtail plant response rating,[3]; [30],10
same,Giant foxtail plant response rating,[3]; [25],10
same,"Plant response rating, Giant foxtail",[3]; [31],10
same,Giant foxtail plant response rating,[3]; [32],3
same,Giant foxtail plant response rating,[3]; [33],10
same,"Plant response rating (0 to 10; 0 is no effect, 10 is complete control), Giant foxtail","[3]; Rate 250 g/ha, Postemergence",8
same,Giant foxtail plant response rating,[3]; [34],8
same,"Plant response rating, Wheat (winter)",[12]; Rate 125 g/ha,70
same,Wheat (winter) plant response rating,"[12]; Rate 250 g/ha, 0 to 100 scale where 0 is no effect and 100 is complete control",75
same,"Plant response rating, Wheat (winter)",[12]; Rate 500 g/ha,80
same,Barnyardgrass plant response rating,"[4]; Rate 62 g/ha, headed Pre-emergence (flood test species), scale 0 to 10 (0 no effect, 10 complete control)",0
same,Barnyardgrass plant response rating,"[4]; Rate 125 g/ha, Pre-emergence, flood test species, scale 0 to 10 where 0 is no effect and 10 is complete control",0
same,Barnyardgrass plant response rating,"[4]; Rate 250 g/ha, Pre-emergence, flood-test species, scale 0 to 10, 0 is no effect, 10 is complete control",0
same,Barnyardgrass plant response rating,"[4]; Rate 500 g/ha, Pre-emergence, flood test species, scale 0 to 10 (0 no effect, 10 complete control)",0
same,"Plant response rating, Tall Mallow",[13]; [35],50
same,"Plant response rating, Tall Mallow",[13]; [17],20
same,Tall Mallow plant response rating,[13]; [18],30
same,Tall Mallow plant response rating,[13]; [19],40
same,"Plant response rating, Tall Mallow",[13]; Rate 250 g/ha,60
same,"Plant response rating, Blackgrass",[14]; [28],65
same,Blackgrass plant response rating (0 to 100 scale),[14]; Rate 250 g/ha,85
same,"Plant response rating, Blackgrass",[14]; [29],100
same,Cocklebur plant response rating,[7]; [30],0
same,Cocklebur plant response rating,[7]; [25],0
same,"Plant response rating, Cocklebur",[7]; [31],5
same,Cocklebur plant response rating,[7]; [32],0
same,Cocklebur plant response rating,"[7]; Rate 125 g/ha, Postemergence, scale 0 to 10",2
same,Cocklebur plant response rating,[7]; [33],0
same,"Plant response rating (0 to 10; 0 is no effect, 10 is complete control), Cocklebur","[7]; Rate 250 g/ha, Postemergence",4
same,Cocklebur plant response rating,[7]; [34],0
same,"Plant response rating, C. ragweed",[15]; [35],0
same,"Plant response rating, C. ragweed",[15]; [17],0
same,"Plant response rating, C. ragweed",[15]; [18],10
same,"Plant response rating, C. ragweed",[15]; [19],10
same,"Plant response rating, C. ragweed",[15]; Rate 250 g/ha,60
same,"Plant response rating, Barley (winter)",[16]; [28],30
same,Barley (winter) plant response rating (0 to 100 scale),[16]; Rate 250 g/ha,60
same,"Plant response rating, Barley (winter)",[16]; [29],70
